Source: ChEMBL document CHEMBL5380860, “Design, Synthesis, and Antitumor Activity of Potent and Selective EGFR L858R/T790M Inhibitors and Identification of a Combination Therapy to Overcome Acquired Resistance in Models of Non-small-cell Lung Cancer” (J Med Chem, 2023)

System: not listed separately
Experiment: Cytotoxicity against human A-431 cells harboring wild type EGFR assessed as reduction in cell viability measured after 72 hrs by MTT assay
Assay type: toxicity, cell-based
Conditions: not given

| SMILES | IC50 at 72 h |
| --- | --- |
| C=CC(=O)Nc1cccc(Nc2nc(Nc3ccc(N4CCN(C)CC4)cc3)nc3cc(OC)c(OC)cc23)c1 | > 10 µM |
| C=CC(=O)Nc1cccc(Nc2nc(Nc3ccc(N(C)CCN(C)C)cc3)nc3ccc(Cl)cc23)c1 | 2.89 µM |
| C=CC(=O)Nc1cccc(Nc2nc(Nc3ccc(N4CCN(C)CC4)cc3)nc3c2CN(C(=O)OC(C)(C)C)CC3)c1 | > 10 µM |
| C=CC(=O)Nc1cccc(Nc2nc(Nc3ccc(N4CCN(C)CC4)cc3OC)nc3ccc(F)cc23)c1 | 3.25 µM |
| C=CC(=O)Nc1cccc(Nc2nc(Nc3ccc(N4CCC(N(C)C)CC4)cc3OC)nc3ccc(Cl)cc23)c1 | 5.8 µM |
| C=CC(=O)Nc1ccccc1Nc1nc(Nc2ccc(N3CCN(C)CC3)cc2)nc2ccc(Cl)cc12 | > 10 µM |
| C=CS(=O)(=O)Nc1cccc(Nc2nc(Nc3ccc(N4CCN(C)CC4)cc3)nc3ccc(Cl)cc23)c1 | 8.77 µM |
| C=CC(=O)Nc1cccc(Nc2nc(Nc3ccc(N4CCC(N5CCN(C)CC5)CC4)cc3OC)nc3ccc(F)cc23)c1 | > 10 µM |
| C=CC(=O)Nc1cccc(Nc2nc(Nc3ccc(N4CCC(N5CCOCC5)CC4)cc3OC)nc3ccc(F)cc23)c1 | > 10 µM |
| C=CC(=O)Nc1cccc(Nc2nc(Nc3ccc(N4CCN(C)CC4)cc3)nc3c(Cl)cccc23)c1 | > 10 µM |
| C=CC(=O)Nc1cccc(Nc2nc(Nc3ccc(N4CCN(C)CC4)cc3)nc3ccccc23)c1 | 6.79 µM |
| CN1CCN(c2ccc(Nc3nc(Nc4cccc(NC(=O)/C=C/c5ccccc5)c4)c4cc(Cl)ccc4n3)cc2)CC1 | 3.22 µM |
| C=CC(=O)Nc1cccc(Nc2nc(Nc3ccc(N4CCC(N5CCOCC5)CC4)cc3OC)nc3ccc(Cl)cc23)c1 | > 10 µM |
| C=CC(=O)Nc1cccc(Nc2nc(Nc3ccc(N4CCN(C)CC4)cc3)nc3ccc(Br)cc23)c1 | 5.42 µM |
| C=CC(=O)Nc1cccc(Nc2nc(Nc3ccc(N4CCN(C)CC4)c(F)c3)nc3ccc(F)cc23)c1 | 1.28 µM |
| C=CC(=O)Nc1cccc(Nc2nc(Nc3ccc(N4CCN(C)CC4)cc3)nc3c2CCN(C(=O)OCc2ccccc2)C3)c1 | > 10 µM |
| C=CC(=O)Nc1cccc(Nc2nc(Nc3ccc(N4CCN(C)CC4)cc3)nc3ccc(C(F)(F)F)cc23)c1 | 7.64 µM |
| C=CC(=O)Nc1cccc(Nc2nc(Nc3ccc(N4CCC(N(C)C)CC4)cc3)nc3ccc(Cl)cc23)c1 | 2.02 µM |

System: not listed separately
Experiment: Cytotoxicity against human A549 cells harboring wild type EGFR assessed as reduction in cell viability measured after 72 hrs by MTT assay
Assay type: toxicity, cell-based
Conditions: not given

| SMILES | IC50 at 72 h |
| --- | --- |
| C=CC(=O)Nc1cccc(Nc2nc(Nc3ccc(N4CCN(C)CC4)cc3)nc3cc(OC)c(OC)cc23)c1 | > 10 µM |
| C=CC(=O)Nc1cccc(Nc2nc(Nc3ccc(N(C)CCN(C)C)cc3)nc3ccc(Cl)cc23)c1 | 2.3 µM |
| C=CC(=O)Nc1cccc(Nc2nc(Nc3ccc(N4CCN(C)CC4)cc3)nc3c2CN(C(=O)OC(C)(C)C)CC3)c1 | > 10 µM |
| C=CC(=O)Nc1cccc(Nc2nc(Nc3ccc(N4CCN(C)CC4)cc3OC)nc3ccc(F)cc23)c1 | 1.52 µM |
| C=CC(=O)Nc1cccc(Nc2nc(Nc3ccc(N4CCC(N(C)C)CC4)cc3OC)nc3ccc(Cl)cc23)c1 | 3.59 µM |
| C=CC(=O)Nc1ccccc1Nc1nc(Nc2ccc(N3CCN(C)CC3)cc2)nc2ccc(Cl)cc12 | > 10 µM |
| C=CS(=O)(=O)Nc1cccc(Nc2nc(Nc3ccc(N4CCN(C)CC4)cc3)nc3ccc(Cl)cc23)c1 | > 10 µM |
| C=CC(=O)Nc1cccc(Nc2nc(Nc3ccc(N4CCC(N5CCN(C)CC5)CC4)cc3OC)nc3ccc(F)cc23)c1 | 8.95 µM |
| C=CC(=O)Nc1cccc(Nc2nc(Nc3ccc(N4CCC(N5CCOCC5)CC4)cc3OC)nc3ccc(F)cc23)c1 | > 10 µM |
| C=CC(=O)Nc1cccc(Nc2nc(Nc3ccc(N4CCN(C)CC4)cc3)nc3c(Cl)cccc23)c1 | > 10 µM |
| C=CC(=O)Nc1cccc(Nc2nc(Nc3ccc(N4CCN(C)CC4)cc3)nc3ccccc23)c1 | 9.85 µM |
| CN1CCN(c2ccc(Nc3nc(Nc4cccc(NC(=O)/C=C/c5ccccc5)c4)c4cc(Cl)ccc4n3)cc2)CC1 | > 10 µM |
| C=CC(=O)Nc1cccc(Nc2nc(Nc3ccc(N4CCC(N5CCOCC5)CC4)cc3OC)nc3ccc(Cl)cc23)c1 | > 10 µM |
| C=CC(=O)Nc1cccc(Nc2nc(Nc3ccc(N4CCN(C)CC4)cc3)nc3ccc(Br)cc23)c1 | 8.71 µM |
| C=CC(=O)Nc1cccc(Nc2nc(Nc3ccc(N4CCN(C)CC4)c(F)c3)nc3ccc(F)cc23)c1 | 2.47 µM |
| C=CC(=O)Nc1cccc(Nc2nc(Nc3ccc(N4CCN(C)CC4)cc3)nc3c2CCN(C(=O)OCc2ccccc2)C3)c1 | > 10 µM |
| C=CC(=O)Nc1cccc(Nc2nc(Nc3ccc(N4CCN(C)CC4)cc3)nc3ccc(C(F)(F)F)cc23)c1 | > 10 µM |
| C=CC(=O)Nc1cccc(Nc2nc(Nc3ccc(N4CCC(N(C)C)CC4)cc3)nc3ccc(Cl)cc23)c1 | 1.83 µM |

System: NCI-H1975
Experiment: Antiproliferative activity against human NCI-H1975 cells harboring EGFR L858R/T790M mutant assessed as reduction in cell viability measured after 72 hrs by MTT assay
Assay type: functional, cell-based
Conditions: NCI-H1975, 72 h

| SMILES | IC50 |
| --- | --- |
| C=CC(=O)Nc1cccc(Nc2nc(Nc3ccc(N4CCN(C)CC4)cc3)nc3cc(OC)c(OC)cc23)c1 | 4.2 µM |
| C=CC(=O)Nc1cccc(Nc2nc(Nc3ccc(N(C)CCN(C)C)cc3)nc3ccc(Cl)cc23)c1 | 1.24 µM |
| C=CC(=O)Nc1cccc(Nc2nc(Nc3ccc(N4CCN(C)CC4)cc3)nc3c2CN(C(=O)OC(C)(C)C)CC3)c1 | 8.65 µM |
| C=CC(=O)Nc1cccc(Nc2nc(Nc3ccc(N4CCN(C)CC4)cc3OC)nc3ccc(F)cc23)c1 | 0.234 µM |
| C=CC(=O)Nc1cccc(Nc2nc(Nc3ccc(N4CCC(N(C)C)CC4)cc3OC)nc3ccc(Cl)cc23)c1 | 0.561 µM |
| C=CC(=O)Nc1ccccc1Nc1nc(Nc2ccc(N3CCN(C)CC3)cc2)nc2ccc(Cl)cc12 | 1.32 µM |
| C=CS(=O)(=O)Nc1cccc(Nc2nc(Nc3ccc(N4CCN(C)CC4)cc3)nc3ccc(Cl)cc23)c1 | 1.03 µM |
| C=CC(=O)Nc1cccc(Nc2nc(Nc3ccc(N4CCC(N5CCN(C)CC5)CC4)cc3OC)nc3ccc(F)cc23)c1 | 1.02 µM |
| C=CC(=O)Nc1cccc(Nc2nc(Nc3ccc(N4CCC(N5CCOCC5)CC4)cc3OC)nc3ccc(F)cc23)c1 | 4.62 µM |
| C=CC(=O)Nc1cccc(Nc2nc(Nc3ccc(N4CCN(C)CC4)cc3)nc3c(Cl)cccc23)c1 | 5.63 µM |
| C=CC(=O)Nc1cccc(Nc2nc(Nc3ccc(N4CCN(C)CC4)cc3)nc3ccccc23)c1 | 2.32 µM |
| CN1CCN(c2ccc(Nc3nc(Nc4cccc(NC(=O)/C=C/c5ccccc5)c4)c4cc(Cl)ccc4n3)cc2)CC1 | 2.31 µM |
| C=CC(=O)Nc1cccc(Nc2nc(Nc3ccc(N4CCC(N5CCOCC5)CC4)cc3OC)nc3ccc(Cl)cc23)c1 | 5.24 µM |
| C=CC(=O)Nc1cccc(Nc2nc(Nc3ccc(N4CCN(C)CC4)cc3)nc3ccc(Br)cc23)c1 | 2.63 µM |
| C=CC(=O)Nc1cccc(Nc2nc(Nc3ccc(N4CCN(C)CC4)c(F)c3)nc3ccc(F)cc23)c1 | 0.035 µM |
| C=CC(=O)Nc1cccc(Nc2nc(Nc3ccc(N4CCN(C)CC4)cc3)nc3c2CCN(C(=O)OCc2ccccc2)C3)c1 | > 10 µM |
| C=CC(=O)Nc1cccc(Nc2nc(Nc3ccc(N4CCN(C)CC4)cc3)nc3ccc(C(F)(F)F)cc23)c1 | 4.76 µM |
| C=CC(=O)Nc1cccc(Nc2nc(Nc3ccc(N4CCC(N(C)C)CC4)cc3)nc3ccc(Cl)cc23)c1 | 0.174 µM |

System: HCC827
Experiment: Antiproliferative activity against human HCC827 cells harboring EGFR exon del 19 mutant assessed as reduction in cell viability measured after 72 hrs by MTT assay
Assay type: functional, cell-based
Conditions: HCC827, 72 h

| SMILES | IC50 |
| --- | --- |
| C=CC(=O)Nc1cccc(Nc2nc(Nc3ccc(N4CCN(C)CC4)cc3)nc3cc(OC)c(OC)cc23)c1 | 4.23 µM |
| C=CC(=O)Nc1cccc(Nc2nc(Nc3ccc(N(C)CCN(C)C)cc3)nc3ccc(Cl)cc23)c1 | 0.95 µM |
| C=CC(=O)Nc1cccc(Nc2nc(Nc3ccc(N4CCN(C)CC4)cc3)nc3c2CN(C(=O)OC(C)(C)C)CC3)c1 | 7.81 µM |
| C=CC(=O)Nc1cccc(Nc2nc(Nc3ccc(N4CCN(C)CC4)cc3OC)nc3ccc(F)cc23)c1 | 0.098 µM |
| C=CC(=O)Nc1cccc(Nc2nc(Nc3ccc(N4CCC(N(C)C)CC4)cc3OC)nc3ccc(Cl)cc23)c1 | 0.159 µM |
| C=CC(=O)Nc1ccccc1Nc1nc(Nc2ccc(N3CCN(C)CC3)cc2)nc2ccc(Cl)cc12 | 1.02 µM |
| C=CS(=O)(=O)Nc1cccc(Nc2nc(Nc3ccc(N4CCN(C)CC4)cc3)nc3ccc(Cl)cc23)c1 | 1.49 µM |
| C=CC(=O)Nc1cccc(Nc2nc(Nc3ccc(N4CCC(N5CCN(C)CC5)CC4)cc3OC)nc3ccc(F)cc23)c1 | 1.06 µM |
| C=CC(=O)Nc1cccc(Nc2nc(Nc3ccc(N4CCC(N5CCOCC5)CC4)cc3OC)nc3ccc(F)cc23)c1 | 3.93 µM |
| C=CC(=O)Nc1cccc(Nc2nc(Nc3ccc(N4CCN(C)CC4)cc3)nc3c(Cl)cccc23)c1 | 4.64 µM |
| C=CC(=O)Nc1cccc(Nc2nc(Nc3ccc(N4CCN(C)CC4)cc3)nc3ccccc23)c1 | 2.32 µM |
| CN1CCN(c2ccc(Nc3nc(Nc4cccc(NC(=O)/C=C/c5ccccc5)c4)c4cc(Cl)ccc4n3)cc2)CC1 | 1.01 µM |
| C=CC(=O)Nc1cccc(Nc2nc(Nc3ccc(N4CCC(N5CCOCC5)CC4)cc3OC)nc3ccc(Cl)cc23)c1 | 4.59 µM |
| C=CC(=O)Nc1cccc(Nc2nc(Nc3ccc(N4CCN(C)CC4)cc3)nc3ccc(Br)cc23)c1 | 1.9 µM |
| C=CC(=O)Nc1cccc(Nc2nc(Nc3ccc(N4CCN(C)CC4)c(F)c3)nc3ccc(F)cc23)c1 | 0.02 µM |
| C=CC(=O)Nc1cccc(Nc2nc(Nc3ccc(N4CCN(C)CC4)cc3)nc3c2CCN(C(=O)OCc2ccccc2)C3)c1 | > 10 µM |
| C=CC(=O)Nc1cccc(Nc2nc(Nc3ccc(N4CCN(C)CC4)cc3)nc3ccc(C(F)(F)F)cc23)c1 | 4.68 µM |
| C=CC(=O)Nc1cccc(Nc2nc(Nc3ccc(N4CCC(N(C)C)CC4)cc3)nc3ccc(Cl)cc23)c1 | 0.065 µM |
